The values that follow come from US9464058B2 (Hoffmann-La Roche Inc., priority 2012, dated 2016).

One assay concerns the target T1, human CYP11B2 (Homo sapiens, UniProt P19099).
T1 construct: expressed in transfected cells
T1 sequence (P19099 25-503): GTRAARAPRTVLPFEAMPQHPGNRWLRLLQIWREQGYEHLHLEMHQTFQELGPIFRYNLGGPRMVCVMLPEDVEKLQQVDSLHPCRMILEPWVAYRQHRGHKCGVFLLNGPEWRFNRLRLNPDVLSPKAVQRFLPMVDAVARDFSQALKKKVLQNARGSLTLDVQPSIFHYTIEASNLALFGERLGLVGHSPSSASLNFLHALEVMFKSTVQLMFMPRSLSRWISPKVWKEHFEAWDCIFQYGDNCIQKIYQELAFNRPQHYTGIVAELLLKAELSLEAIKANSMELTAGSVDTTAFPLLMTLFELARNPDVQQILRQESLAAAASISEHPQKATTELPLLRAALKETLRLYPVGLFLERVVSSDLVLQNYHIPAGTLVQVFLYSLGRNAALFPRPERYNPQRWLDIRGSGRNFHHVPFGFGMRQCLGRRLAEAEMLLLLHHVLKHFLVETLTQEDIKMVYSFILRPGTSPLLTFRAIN
Nature of the assay: G-402 cellular enzyme assay, human CYP11B2 (aldosterone release, HTRF). It is filed as cell-based. The note with it: G-402 cells expressing human CYP11B2; 1 μM Deoxycorticosterone; 16 h. An excerpt:
(§1) Herein we identified the use of the G-402 cell line as a host cell to ectopically express (transiently or stably) enzymes of the CYP11 family. Specifically we developed stable G-402 cells expressing ectopically human CYP11B1, human CYP11B2, human CYP11A1, cynomolgus CYP11B1 or cynomolgus CYP11B2 enzyme activity. Importantly, the identified cell line G-402 expresses co-factors (adrenodoxin and adrenodoxin reductase) important for the activity of the CYP11 family, and no relevant enzyme activity of the CYP11 family (in comparison to H295R cells) was detected in these cells. Therefore the G-402 cell line is uniquely suited as a host cell for the ectopic expression of enzymes from the CYP11 family.
(§2) G-402 cells can be obtained from ATCC(CRL-1440) and were originally derived from a renal leiomyoblastoma.
(§3) The expression plasmids contains the ORF for either human/cyno CYP11B1 or CYP11B2 under the control of a suitable promoter (CMV-promoter) and a suitable resistance marker (neomycin). Using standard techniques the expression plasmid is transfected into G-402 cells and these cells are then selected for expressing the given resistance markers. Individual cell-clones are then selected and assessed for displaying the desired enzymatic activity using 11-Deoxycorticosterone (Cyp11B2) or 11-Deoxycortisol (Cyp11B1) as a substrate.
(§4) G-402 cells expressing CYP11 constructs were established as described above and maintained in McCoy's 5a Medium Modified, ATCC Catalog No. 30-2007 containing 10% FCS and 400 μg/ml G418 (Geneticin) at 37° C. under an atmosphere of 5% CO2/95% air. Cellular enzyme assays were performed in DMEM/F12 medium containing 2.5% charcoal treated FCS and appropriate concentration of substrate (0.3-10 uM 11-Deoxycorticosterone, 11-Deoxycortisol or Corticosterone). For assaying enzymatic activity, cells were plated onto 96 well plates and incubated for 16 h. An aliquot of the supernatant is then transferred and analyzed for the concentration of the expected product (Aldosterone for CYP11B2; Cortisol for CYP11B1). The concentrations of these steroids can be determined using HTRF assays from CisBio analyzing either Aldosterone or Cortisol.
(§5) Inhibition of the release of produced steroids can be used as a measure of the respective enzyme inhibition by test compounds added during the cellular enzyme assay. The dose dependent inhibition of enzymatic activity by a compound is calculated by means of plotting added inhibitor concentrations (x-axes) vs. measured steroid/product level (y-axes). The inhibition is then calculated by fitting the following 4-parameter sigmoidal function (Morgan-Mercer-Flodin (MMF) model) to the raw data points using the least squares method:
(§6) [formula] wherein A is the maximum y value, B is the EC50 factor determined using XLFit, C is the minimum y value and D is the slope value.
(§7) EC50 values for compounds claimed herein were tested with the G402-based assay system described. Cyp11B2 enzyme activity was tested in presence of 1 μM Deoxycorticosterone and variable amounts of inhibitors; Cyp11B1 enzyme activity was tested in presence of 1 μM Deoxycortisol and variable amounts of inhibitors.

The next assay deals with T2, human CYP11B1 (Homo sapiens, UniProt P15538).
T2 construct: expressed in transfected cells
T2 sequence (P15538 25-503): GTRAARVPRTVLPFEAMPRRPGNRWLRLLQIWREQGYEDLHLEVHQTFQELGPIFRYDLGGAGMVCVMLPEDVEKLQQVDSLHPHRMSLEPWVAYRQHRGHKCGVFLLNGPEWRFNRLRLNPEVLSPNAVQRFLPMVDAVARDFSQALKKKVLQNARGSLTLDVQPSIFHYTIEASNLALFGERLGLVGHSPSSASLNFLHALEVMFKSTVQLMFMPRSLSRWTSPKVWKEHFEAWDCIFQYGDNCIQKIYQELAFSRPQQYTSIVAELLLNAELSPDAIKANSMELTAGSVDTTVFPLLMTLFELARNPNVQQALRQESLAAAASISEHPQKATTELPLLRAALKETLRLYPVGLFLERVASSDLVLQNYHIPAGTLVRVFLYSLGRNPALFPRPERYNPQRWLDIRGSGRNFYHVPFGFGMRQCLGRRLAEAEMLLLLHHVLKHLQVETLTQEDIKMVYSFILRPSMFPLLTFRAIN
In words: G-402 cellular enzyme assay, human CYP11B1 (cortisol release, HTRF). In kind it is cell-based. The note with it: G-402 cells expressing human CYP11B1; 1 μM Deoxycortisol; 16 h.
Excerpt: as §1, §2, §3, §4, §5, §6, §7

As usually defined, the EC50 is the concentration giving half of the maximal effect. Take `N#Cc1ccc(-n2cncc2C(=O)c2ccc(Cl)c(Cl)c2)cc1` [Example 96, 4-[5-(3,4-Dichloro-benzoyl)-imidazol-1-yl]-benzonitrile]: the EC50 turned out to be 5.6 nM on human CYP11B2 and 199 nM at human CYP11B1.
For `CCn1cncc1C(=O)c1ccc(SC(F)(F)F)cc1` [Example 74, (3-Ethyl-3H-imidazol-4-yl)-(4-trifluoromethylsulfanyl-phenyl)-methanone], in that order: 235 nM and 1320 nM.
Consider `Cn1cncc1C(=O)c1ccc(Br)cc1` [Example 68, (4-Bromo-phenyl)-(3-methyl-3H-imidazol-4-yl)-methanone], for which the EC50 worked out at 18.6 nM at human CYP11B2 and 488 nM on human CYP11B1.
The corresponding values for `O=C(c1ccc(F)c(F)c1)c1cncn1-c1ccc(Cl)cc1` [Example 97, [3-(4-Chloro-phenyl)-3H-imidazol-4-yl]-(3,4-difluoro-phenyl)-methanone] are 3.4 nM and 74.6 nM.
In the case of `CC(C)n1cncc1C(=O)c1ccc(Br)cc1` [Example 72, (4-Bromo-phenyl)-(3-isopropyl-3H-imidazol-4-yl)-methanone], the results for the EC50 on human CYP11B2 and on human CYP11B1 were 5.2 nM and 10.1 nM, respectively.
The corresponding values for `CC(C)n1cncc1C(=O)c1cccc(Cl)c1` [Example 12, (3-Chloro-phenyl)-(3-isopropyl-3H-imidazol-4-yl)-methanone] are 1.3 nM and 5.3 nM.
For `CC(C)n1cncc1C(=O)c1ccc2c(c1)CCC(=O)N2C` [Example 27, 6-(3-Isopropyl-3H-imidazole-4-carbonyl)-1-methyl-3,4-dihydro-1H-quinolin-2-one], in that order: 6.9 nM and 153 nM.
The corresponding values for `CCn1cncc1C(=O)c1ccc(F)c(Cl)c1` [Example 33, (3-Chloro-4-fluoro-phenyl)-(3-ethyl-3H-imidazol-4-yl)-methanone] are 3.7 nM and 31.7 nM.
`CC(C)n1cncc1C(=O)c1ccc(F)c(Cl)c1` [Example 38, (3-Chloro-4-fluoro-phenyl)-(3-isopropyl-3H-imidazol-4-yl)-methanone]: the EC50 at human CYP11B2 and on human CYP11B1 was 3.9 nM throughout.
With `O=C(c1ccc(Cl)c(Cl)c1)c1cncn1-c1ccc(Cl)cc1` [Example 91, [3-(4-Chloro-phenyl)-3H-imidazol-4-yl]-(3,4-dichloro-phenyl)-methanone], the EC50 on human CYP11B2 was found to be 4.2 nM; on human CYP11B1, 439 nM.
With `Cn1cncc1C(=O)c1ccc(Cl)cc1` [Example 1, (4-Chloro-phenyl)-(3-methyl-3H-imidazol-4-yl)-methanone], the figures for the EC50 on human CYP11B2 and on human CYP11B1 were 62.3 nM and 195 nM, respectively.
The corresponding values for `Cn1cncc1C(=O)c1ccc(C#N)c(Cl)c1` [Example 42, 2-Chloro-4-(3-methyl-3H-imidazole-4-carbonyl)-benzonitrile] are 7.4 nM and 89.3 nM.
For `CCn1cncc1C(=O)c1ccc(SC)c(OC)c1` [Example 60, (3-Ethyl-3H-imidazol-4-yl)-(3-methoxy-4-methylsulfanyl-phenyl)-methanone], in that order: 4 nM and 84.3 nM.
For `Cn1cncc1C(=O)c1ccc(C#N)cc1F` [Example 8, 3-Fluoro-4-(3-methyl-3H-imidazole-4-carbonyl)-benzonitrile], in that order: 98.6 nM and 2500 nM.
With `Cn1cncc1C(=O)c1ccc(C(F)(F)F)cc1` [Example 31, (3-Methyl-3H-imidazol-4-yl)-(4-trifluoromethyl-phenyl)-methanone], the EC50 at human CYP11B2 was 197 nM; on human CYP11B1, 7840 nM.
`CCn1cncc1C(=O)c1ccc(Cl)cc1` [Example 7, (4-Chloro-phenyl)-(3-ethyl-3H-imidazol-4-yl)-methanone]: the EC50 on human CYP11B2 came out at 4.4 nM; on human CYP11B1, 65.9 nM.
The corresponding values for `CN(C=O)c1ccc(C(=O)c2cncn2C)cc1` [Example 87, N-Methyl-N-[4-(3-methyl-3H-imidazole-4-carbonyl)-phenyl]-formamide] are 186 nM and 30400 nM.
